# Results from a melting point compilation (Tetko et al.; mined from patent text by program, amines drawn as free bases though some values may be those of a salt).
row,Structure (SMILES),melting point [°C]
1,COc1ccc(-n2c3ccccc3c3cc(C=C(C#N)c4cc(C(F)(F)F)cc(C(F)(F)F)c4)ccc32)cc1,198 to 200
2,COc1c(Nc2ncc(Cl)c(N[C@H]3[C@@H](C(N)=O)[C@@H]4C=C[C@H]3C4)n2)ccc2c1CC(N1CCOCC1)CCC2 (some centres undefined),139 to 148
3,Cc1nnc2n1-c1ccc(I)cc1C(c1ccccc1Cl)=NC2,290 to 292
4,CC(C)(C)OCCOc1cc(NC(=O)OC(C)(C)C)c([N+](=O)[O-])cc1I,113 to 116
5,Cc1c(C(=O)O)oc2ccccc2c1=O,192 to 193
6,O=C1CCC(N2C(=O)c3ccc(CNC(=O)c4ccccn4)cc3C2=O)C(=O)N1 (centres undefined),212 to 214
7,Cn1cc(-c2ccc(C(=O)O)cc2)cn1,274 to 275
8,O=c1nc(-c2ccnc(N3CCN(c4ccc(F)cc4)CC3)c2)sc2ccccc12,233 to 234
9,FC(F)(F)c1cc(CNCc2cc3ccccc3nc2N2CCN(CC3CCCCC3)CC2)cc(C(F)(F)F)c1,54 to 55
10,CC(C)(C)c1cc2oc(-c3ccc(S(N)(=O)=O)cc3)c(-c3ccc(F)cc3)n2n1,196 to 200
11,C#CCN(Cc1ccc2nc(C)[nH]c(=O)c2c1)c1ccc(C(=O)NCC2CCNCC2)cc1,130 to 133
12,CCCCCCCCCCCCCC(CP(c1ccccc1)c1ccccc1)C(C)CP(c1ccccc1)c1ccccc1 (centres undefined),105 to 106
13,COCCc1nc2c(N)nc3ccccc3c2n1CC(C)(C)CNC(=O)Nc1ccccc1,125 to 130
14,C=CCC1=C(C)C(O)CC1=O (centres undefined),130 to 132
15,O=C(Cc1ccccc1C(=O)O)Nc1cccc(/C=C/c2csc(C3CCC3)n2)c1,198 to 199
16,COC(=O)CCc1nc(CCc2ccc(CC(=O)OC)cc2)ccc1O,90 to 91
17,CCCc1c(/C=C/c2ccc(C)cc2)nc2ccc(C(=O)O)cn2c1=O,274 to 275
18,Cc1nc2ccccc2n1-c1ccc(C(=O)N(C)C2CCNCC2)cc1,219 to 221
19,CC(C)(C)C(=O)Nc1ccc2oc3c(c2c1)CCCCC3,208 to 209
20,CC(C)(O)CNCCN(C1CCNCC1)S(=O)(=O)c1ccc(Nc2nccc(Nc3ccc(F)cc3)n2)cc1,120
21,COc1ccccc1-n1nccc1-c1nn(-c2cccc(C(F)(F)F)c2)ccc1=O,146 to 147
22,Fc1ccc2[nH]cc(C3=CCC4(CC3)OCCO4)c2c1,153 to 155
23,CCCN1C(=O)N2C[C@@H](Cc3ccccc3)N=C2c2[nH]c(COCc3ccccc3)nc21,130 to 132
24,Nc1ncnc2c1c(-c1ccccc1)cn2-c1cccc(C(=O)NCCO)c1,194 to 198
25,O=c1ccoc(C(O)c2cccnc2)c1O (centres undefined),176 to 180

row,Structure (SMILES),melting point [°C]
1,CNC(=O)Nc1cc2c(s1)CCCC2NC(=O)NC (centres undefined),233 to 234
2,O=c1[nH]c2cc(Cl)c(Cl)cc2n1[C@@H]1C[C@H](CO)[C@@H](O)[C@H]1O,219 to 220
3,COc1ccc(C2CCN(C(=O)C(N)=O)CC2)cc1C=C1CCCC1,116 to 117
4,Cc1nc(N2CCN(Cc3cccc4cccnc34)C2=O)sc1C(=O)NCc1cccnc1,225 to 228
5,Cc1cccc(NC(=O)CN2CCN(c3ccccn3)CC2)c1,126 to 127
6,Cc1c(Cl)cc(Cl)cc1Br,84 to 85
7,CCC12CCC(=O)C=C1c1c(cc(OCC#N)c(Cl)c1Cl)C2 (centres undefined),171 to 172
8,CC(C)NC(=O)c1ccn2nc(-c3ccccc3)c(-c3ccc(=O)n(C(C)C)n3)c2c1,230 to 232
9,CCOC(=O)c1cn(C)c2c(=O)oc3ccccc3c2c1=O,203 to 208
10,CCCn1c(=O)c(=O)[nH]c2cc([N+](=O)[O-])c(-n3ccc(=O)cc3)cc21,> 300
11,Cc1cc(Br)cn2cc(-c3ccc(C#N)cc3)nc12,209 to 210
12,COc1ccc(N2CCN(c3ccc(-n4cnnc4SC)cc3)CC2)cc1,180
13,CCCc1c(OS(=O)(=O)N(C)C)cc2oc3cc(Cl)cn3c(=O)c2c1O,159 to 160
14,COc1cc(C2CCOC2=O)c([N+](=O)[O-])cc1OC (centres undefined),144 to 147
15,CCCCC(Cc1ccc(OCCCNC(=O)c2ccc(-c3ccccn3)cc2)cc1)C(=O)O (centres undefined),151 to 152
16,Nc1nc(OCCC2CCCCC2)c2[nH]cnc2n1,210
17,O=Cc1c2ccccc2c(Cl)c2cccc(Cl)c12,180 to 183
18,CN(Cc1ccc(C=CC(=O)O)cc1)S(=O)(=O)c1ccccc1,112
19,Cc1cc(C)n(C(=O)C(Cc2ccccc2)NS(=O)(=O)c2ccc(Cl)cc2)n1 (centres undefined),137 to 138
20,C#Cc1ccc(NC(=O)N[C@H](CCC)C(=O)Nc2ccc(N3CCOCC3=O)cc2)cc1,182
21,COC(=O)c1ccc2cc(CCc3cc4ccc(C(=O)OC)cc4o3)oc2c1,175 to 177
22,O=C(N[C@H]1CC[C@H](CCN2CCN(c3nccc4c3OCC4)CC2)CC1)C1(O)CCC1,250
23,CC1(C)NC(=O)N(CC(CS(=O)(=O)c2ccc(-c3ccc(C(F)(F)F)cc3)cc2)N(O)C=O)C1=O (centres undefined),180 to 182
24,CC(=O)OCc1nc([N+](=O)[O-])cn1C,93 to 95
